Data taken from PMC5510229, “BCAT1 controls metabolic reprogramming in activated human macrophages and is associated with inflammatory diseases” (Nature Communications, 2017).

System: human monocyte-derived macrophages (hMDMs)
Test: Itaconate and citrate measurement by GC/MS in hMDMs
Assay type: cell-based
Experimental: Figure 1 BCAT1 expression and inhibition in human macrophages. […] (b) Chemical structure of ERG240 and leucine. (c) Enzymatic activity of recombinant human BCAT1 and BCAT2 in presence of ERG240. (d) Relative expression of IRG1, HIF1A and IL1B measured by qRT-PCR in control, ERG240-treated (20 mM, 3 h), LPS treated (100 ng ml^−1, 3 h), and LPS+ERG240 treated (LPS, 100 ng ml^−1; ERG240, 20 mM for 3 h) hMDMs. ns, non-significant. All expression values are normalized to those obtained for HPRT gene expression. n=3 healthy donor hMDMs were used in each group. […]
For itaconate, cells pellets containing 1.5 × 10^6 hMDMs were quenched with 400 μl of methanol, previously chilled at −20 °C. […] After a brief centrifugation, derivatized metabolites were transferred into clean GC/MS vials and analysed for the presence of itaconic acid (itaconate) using a 7890A GC System (Agilent Technologies) equipped with an Agilent J&W DB-5ms column (30 m, 0.25 mm, 0.25 μm), connected to an 5975C Triple-Axis MS Detector (Agilent Technologies) and outfitted with an autosampler. […] The amount of itaconate present in the sample was determined after peak integration. […] The GC/MS was performed by Biocrates (BIOCRATES Life Sciences AG, Innsbruck, Austria) and the citrate quantification was performed using their commercially available Kit plates, according to the manufacturer’s instructions. […]

With `CC(=O)C(C)CCC(=O)O` (centres unmarked) [ERG240] the “citrate levels by GC/MS” value (LPS 3 h 100 ng/ml + ERG240 vs LPS) was “further significantly increased” and the “itaconate levels measured by GC/MS” value (LPS 8 h 100 ng ml^−1, ERG240 20 mM) was “decreased itaconate levels”.
